The NIST ThermoML archive (doi:10.1021/je050195w)
Numbers after ± are expanded uncertainties.

Conditions: Crystal; DTA

Normal melting temperature: 205.50 ± 1.1 °C
SMILES: CC(=O)[C@@]12O[C@@H]1C[C@H]1[C@@H]3CCC4=CC(=O)CC[C@]4(C)[C@H]3CC[C@@]12C [16α,17-epoxypregn-4-ene-3,20-dione]
